The target of assay [1] is human Nav1.7 (Homo sapiens, UniProt Q15858). The assay is described as follows: FLIPR or FLIPR TETRA sodium dye assay with KCl and test article pre-incubation (CoroNa Green, veratridine + scorpion venom). Type of assay: cell-based.
Assay [2] addresses hNav1.7 (Homo sapiens, UniProt Q15858). Briefly: Electrophysiology (EP) assay, whole-cell patch clamp, hNav1.7 expressing HEK-293 cells. Type of assay: cell-based. Particulars: hNav1.7 HEK-293 cells; affinity for the inactivated state; read-out: Nav1.7 Activity (μM) EP assay Ki. How it is done:
The hNav1.7 expressing HEK-293 cells are plated on 35 mm culture dishes pre-coated with poly-D-lysine in standard DMEM culture media (Mediatech, Inc., Herndon, Va.) and incubated in a 5% CO2 incubator at 37° C. Cultured cells are used approximately 12-48 hours after plating.
The hNav1.7 expressing HEK-293 cells are plated on tissue culture flasks in standard DMEM culture media (Mediatech, Inc.) and incubated in a 5% CO2 incubator at 37° C. Cultured cells are used approximately 12-48 hours after plating.
On the day of experimentation, the 35 mm dish is placed on the stage of an inverted microscope equipped with a perfusion system that continuously perfuses the culture dish with fresh recording media. A gravity driven superfusion system is used to apply test solutions directly to the cell under evaluation. This “shooter” system consists of an array of glass pipettes connected to a motorized horizontal translator. The outlet of the shooter is positioned approximately 100 μm from the cell of interest.
Whole cell currents are recorded using the whole-cell patch clamp configuration using an Axopatch 200B amplifier (Axon Instruments, Foster City Calif.), 1322A A/D converter (Axon Instruments) and pClamp software (v. 8; Axon Instruments) and stored on a personal computer. Gigaseals are formed and the whole-cell configuration is established in voltage clamp mode, and membrane currents generated by hNav1.7 channels are recorded. Borosilicate glass pipettes with resistance values between 1.5 and 2.0 MΩ when filled with pipette solution are used and series resistance (<5 MΩ) is compensated by 75-80%. Signals are sampled at 50 kHz and low pass filtered at 3 kHz.
Automated Electrophysiology: On the day of experimentation, cells are prepared by removing media and digesting with appropriate enzymes to suspend cells in external solution.
Whole cell currents are recorded using the whole-cell patch clamp configuration using an Patchliner (Nanion Technologies, Munich Germany), EPC 10 quadro amplifiers (HEKA, Bellmore, N.Y.) and PatchControl HT 10905 (Nanion Technologies) and PatchMaster v2x73 software (HEKA) and stored on a personal computer. Gigaseals are formed and the whole-cell configuration is established in voltage clamp mode, and membrane currents generated by hNav1.7 are recorded. NPC-16 chips have resistance values between 1.0 and 2.0 MΩ when filled with pipette solution and series resistance (<5 MΩ). Signals are sampled at 25 kHz and low pass filtered at 3 kHz.
After establishing the whole-cell configuration in voltage clamp mode, voltage protocols are run to establish the 1) test potential (Vmax), 2) holding potential (Vh), and 3) the conditioning potential for each cell.
After establishing the whole-cell configuration in voltage clamp mode, a standard I-V protocol is run to determine the potential at which the maximal current (Imax) is elicited. This potential is the test potential (Vt). To determine a conditioning potential at which 100% of channels are in the inactivated state, a standard steady-state inactivation (SSIN) protocol is run using a series of fifteen 100 ms-long depolarizing prepulses, incrementing in 10 mV steps, immediately followed by a 5 ms testing pulse to Vmax. This protocol also permits determination of the holding potential at which all channels are in the resting state.
For compounds causing significant retardation of recovery from inactivation, an estimate of the affinity for the inactivated state of the channel (Ki) is generated using the following protocol. From the negative, no residual inactivation, holding potential, the cell is depolarized to the conditioning voltage for 2-5 seconds, returned to the negative holding potential for 10-20 ms to relieve fast inactivation and then depolarized to the test potential for ˜15 ms. This voltage protocol is repeated every 10-15 seconds, first to establish a baseline in the absence of the test compound, then in the presence of the test compound. […]
A general note: In patch-clamp work, channel activity is measured electrically.

Where [3] appears, read: recombinant human Nav1.7 in HEK293 cells.

Like-named read-outs stand apart in the source and are kept apart here.

One may read the IC50 as the concentration needed to halve the response being measured.

Sequence of hNav1.7 (Q15858 1-1977 isoform Q15858-3): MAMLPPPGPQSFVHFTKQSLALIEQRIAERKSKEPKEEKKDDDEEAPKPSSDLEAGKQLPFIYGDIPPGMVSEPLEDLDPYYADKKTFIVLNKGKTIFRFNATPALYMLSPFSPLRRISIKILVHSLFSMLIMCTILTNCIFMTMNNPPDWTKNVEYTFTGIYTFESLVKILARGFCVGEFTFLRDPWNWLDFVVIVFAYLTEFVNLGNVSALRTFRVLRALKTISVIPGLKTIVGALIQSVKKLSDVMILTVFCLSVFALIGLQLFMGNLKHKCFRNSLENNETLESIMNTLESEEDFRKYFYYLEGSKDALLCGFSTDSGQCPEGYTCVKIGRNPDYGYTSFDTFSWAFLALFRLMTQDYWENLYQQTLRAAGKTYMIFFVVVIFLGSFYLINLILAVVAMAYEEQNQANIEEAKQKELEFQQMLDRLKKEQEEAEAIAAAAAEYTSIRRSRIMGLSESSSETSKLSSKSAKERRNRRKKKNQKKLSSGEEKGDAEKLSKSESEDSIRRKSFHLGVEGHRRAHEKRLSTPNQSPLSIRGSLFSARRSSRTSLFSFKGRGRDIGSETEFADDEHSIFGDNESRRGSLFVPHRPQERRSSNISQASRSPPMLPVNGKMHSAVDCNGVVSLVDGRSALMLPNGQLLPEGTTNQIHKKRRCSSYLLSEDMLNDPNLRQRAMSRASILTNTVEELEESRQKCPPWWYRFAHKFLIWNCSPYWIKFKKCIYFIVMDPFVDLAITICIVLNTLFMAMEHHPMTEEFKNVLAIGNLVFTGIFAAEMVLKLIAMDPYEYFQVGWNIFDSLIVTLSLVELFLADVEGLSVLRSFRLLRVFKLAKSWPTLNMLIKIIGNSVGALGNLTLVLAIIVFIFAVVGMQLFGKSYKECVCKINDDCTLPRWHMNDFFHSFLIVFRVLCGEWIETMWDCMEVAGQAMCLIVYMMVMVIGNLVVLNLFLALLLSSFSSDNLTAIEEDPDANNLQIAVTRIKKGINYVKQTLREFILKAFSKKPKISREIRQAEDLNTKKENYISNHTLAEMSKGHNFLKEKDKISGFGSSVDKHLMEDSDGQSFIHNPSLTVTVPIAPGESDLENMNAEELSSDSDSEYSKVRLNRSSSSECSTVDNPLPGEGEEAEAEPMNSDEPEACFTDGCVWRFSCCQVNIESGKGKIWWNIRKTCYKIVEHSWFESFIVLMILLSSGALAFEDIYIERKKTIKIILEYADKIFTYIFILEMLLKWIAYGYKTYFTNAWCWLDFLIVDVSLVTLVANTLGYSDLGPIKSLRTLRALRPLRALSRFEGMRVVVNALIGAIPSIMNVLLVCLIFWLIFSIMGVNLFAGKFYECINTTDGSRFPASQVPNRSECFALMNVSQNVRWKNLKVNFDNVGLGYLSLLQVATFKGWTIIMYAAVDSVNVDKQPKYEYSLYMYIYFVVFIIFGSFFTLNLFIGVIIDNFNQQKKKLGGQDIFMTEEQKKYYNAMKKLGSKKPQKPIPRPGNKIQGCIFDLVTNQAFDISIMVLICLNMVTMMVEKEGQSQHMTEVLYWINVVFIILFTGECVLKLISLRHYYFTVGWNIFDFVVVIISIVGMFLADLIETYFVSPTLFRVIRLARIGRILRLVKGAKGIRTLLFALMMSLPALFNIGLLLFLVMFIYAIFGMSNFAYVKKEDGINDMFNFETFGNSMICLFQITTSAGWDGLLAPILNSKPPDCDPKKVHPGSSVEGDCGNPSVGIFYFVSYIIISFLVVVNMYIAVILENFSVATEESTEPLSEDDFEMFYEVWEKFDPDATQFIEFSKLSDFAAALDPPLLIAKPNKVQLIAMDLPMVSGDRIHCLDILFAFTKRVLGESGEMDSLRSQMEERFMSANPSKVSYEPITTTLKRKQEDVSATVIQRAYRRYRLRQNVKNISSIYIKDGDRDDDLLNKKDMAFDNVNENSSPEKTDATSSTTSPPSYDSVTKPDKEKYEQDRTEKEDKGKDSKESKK
Sequence of human Nav1.7 (Q15858 1-1977 isoform Q15858-3): as above

Consider `NC(=O)N1CCN(c2ccc(C(F)(F)F)cc2)c2ccc(-c3cccc([C@H](O)CO)n3)cc2C1` [Compound 98, (S)-7-(6-(1,2-dihydroxyethyl)pyridin-2-yl)-1-(4-(trifluoromethyl)phenyl)-1,2,3,5-tetrahydro-4H-benzo[e][1,4]diazepin-4-carboxamide], for which, in assay [1], the IC50 was found to be 0.973 ± 0.099 µM. Besides, the Ki in assay [2] was 0.451 ± 0.092 µM. As for `O=C(CO)N1CCN(c2ccc(C(F)(F)F)cc2)c2ccc(-c3cccc([C@H](O)CO)n3)cc2C1` [Compound 99, (S)-1-(7-(6-(1,2-dihydroxyethyl)pyridin-2-yl)-1-(4-(trifluoromethyl)phenyl)-1,2,3,5-tetrahydro-4H-benzo[e][1,4]diazepin-4-yl)-2-hydroxyethan-1-one], the concentration for half-maximal inhibition (IC50) in assay [1] (setting [3]) is 0.896 ± 0.186 µM. In addition, the Ki in assay [2] came to 1.23 ± 0.364 µM. For `C[C@H](Nc1cc(C(N)=O)nc(-c2ccc3c(c2)OCCC3c2ccc(C(F)(F)F)cc2)n1)C(N)=O` (stereo partly drawn) [Compound 111, 6-(((S)-1-amino-1-oxopropan-2-yl)amino)-2-(4-(4-(trifluoromethyl)phenyl)chroman-7-yl)pyrimidine-4-carboxamide], the IC50 in assay [1] (setting [3]) worked out at 0.379 ± 0.044 µM. Moreover, in assay [2], the Ki was 0.459 ± 0.1 µM.

Regarding `OC[C@@H](O)c1cccc(-c2ccc3c(c2)COCCN3c2ccc(C(F)(F)F)cc2)n1` [Compound 62, (S)-1-(6-(1-(4-(trifluoromethyl)phenyl)-1,2,3,5-tetrahydrobenzo[e][1,4]oxazepin-7-yl)pyridin-2-yl)ethane-1,2-diol], in assay [1] (setting [3]), the IC50 turned out to be 0.419 ± 0.058 µM. Moreover, the Ki in assay [2] came to 0.458 ± 0.078 µM.

Turning to `C[C@H](Nc1cc(C(N)=O)nc(-c2ccc3c(c2)OCCCN3c2ccc(C(F)(F)F)cc2)n1)C(N)=O` [Compound 63, (S)-6-((1-amino-1-oxopropan-2-yl)amino)-2-(5-(4-(trifluoromethyl)phenyl)-2,3,4,5-tetrahydrobenzo[b][1,4]oxazepin-8-yl)pyrimidine-4-carboxamide], the IC50 in assay [1] (setting [3]) is 0.246 ± 0.029 µM. Also, the Ki in assay [2] turned out to be 0.344 ± 0.1 µM. Consider `CC(C)CN1CCN(S(C)(=O)=O)Cc2cc(-c3cccc([C@H](O)[C@@H](O)C(N)=O)n3)ccc21` [Compound 125, (2R,3S)-2,3-dihydroxy-3-(6-(1-isobutyl-4-(methylsulfonyl)-2,3,4,5-tetrahydro-1H-benzo[e][1,4]diazepin-7-yl)pyridin-2-yl)propanamide], for which the Ki in assay [2] came to 7.1 ± 2.45 µM. As for `OC[C@@H](O)c1cccc(-c2ccc3c(c2)CN(CC2CC2)CCN3c2ccc(C(F)(F)F)cc2)n1` [Compound 87, (S)-1-(6-(4-(cyclopropylmethyl)-1-(4-(trifluoromethyl)phenyl)-2,3,4,5-tetrahydro-1H-benzo[e][1,4]diazepin-7-yl)pyridin-2-yl)ethane-1,2-diol], the IC50 in assay [1] was 1.32 ± 0.133 µM. In addition, the Ki in assay [2] was found to be 0.548 ± 0.089 µM. Regarding `NC(=O)c1cccc(-c2ccc3c(c2)OCCC3c2ccc(C(F)(F)F)cc2)n1` (stereo not drawn) [Compound 110, 6-(4-(4-(trifluoromethyl)-phenyl)chroman-7-yl)-picolinamide], the IC50 in assay [1] (setting [3]) was determined as 0.142 ± 0.038 µM. Besides, the Ki in assay [2] was found to be 0.161 ± 0.07 µM.

As to `CN1CCN(c2ccc(C(F)(F)F)cc2)c2ccc(-c3cccc(C(N)=O)n3)cc2C1` [Compound 85, 6-(4-methyl-1-(4-(trifluoromethyl)phenyl)-2,3,4,5-tetrahydro-1H-benzo[e][1,4]diazepin-7-yl)picolinamide], the IC50 in assay [1] (setting [3]) was 0.607 ± 0.086 µM. In assay [2], the Ki was 0.399 ± 0.2 µM.

On to `NC(=O)CN1CCN(c2ccc(C(F)(F)F)cc2)c2ccc(-c3cccc([C@H](O)CO)n3)cc2C1` [Compound 103, (S)-2-(7-(6-(1,2-dihydroxyethyl)pyridin-2-yl)-1-(4-(trifluoromethyl)phenyl)-1,2,3,5-tetrahydro-4H-benzo[e][1,4]diazepin-4-yl)acetamide], for which the IC50 in assay [1] was 1.05 ± 0.055 µM. Also, the Ki in assay [2] came to 0.299 ± 0.068 µM. Regarding `CC(C)CN1CCN(S(C)(=O)=O)Cc2cc(-c3cccc([C@H](O)CO)n3)ccc21` [Compound 124, (S)-1-(6-(1-isobutyl-4-(methylsulfonyl)-2,3,4,5-tetrahydro-1H-benzo-[e][1,4]diazepin-7-yl)pyridin-2-yl)ethane-1,2-diol], the Ki in assay [2] was found to be 2.14 ± 0.586 µM. In the case of `C[C@H](Nc1cc(C(N)=O)nc(-c2ccc3c(c2)OC[C@H](O)[C@H]3c2ccc(C(F)(F)F)cc2)n1)C(N)=O` [Compound 71, 6-(((S)-1-amino-1-oxopropan-2-yl)amino)-2-((3R,4S)-3-hydroxy-4-(4-(trifluoromethyl)phenyl)chroman-7-yl)pyrimidine-4-carboxamide], the IC50 in assay [1] (setting [3]) is > 20 µM.

On to `OC[C@@H](O)c1cccc(-c2ccc3c(c2)CCCCN3C2CCC(F)(F)CC2)n1` [Compound 76, (S)-1-(6-(1-(4,4-difluorocyclohexyl)-2,3,4,5-tetrahydro-1H-benzo[b]azepin-7-yl)pyridin-2-yl)ethane-1,2-diol], for which the IC50 in assay [1] (setting [3]) was determined as 0.526 ± 0.034 µM.

For `NC(=O)CN1CCN(C2CCCCC2)c2ccc(-c3cccc([C@H](O)CO)n3)cc2C1` [Compound 104, (S)-2-(1-cyclohexyl-7-(6-(1,2-dihydroxyethyl)pyridin-2-yl)-1,2,3,5-tetrahydro-4H-benzo[e][1,4]diazepin-4-yl)acetamide], the half-maximal inhibitory concentration (IC50) in assay [1] (setting [3]) was determined as 2.61 ± 0.047 µM. On to `CC(=O)N1CCN(c2ccc(C(F)(F)F)cc2)c2ccc(-c3cccc(C(N)=O)n3)cc2C1` [Compound 91, 6-(4-acetyl-1-(4-(trifluoromethyl)phenyl)-2,3,4,5-tetrahydro-1H-benzo[e][1,4]diazepin-7-yl)picolinamide], for which the IC50 in assay [1] (setting [3]) came to 0.375 ± 0.062 µM. In assay [2], the Ki amounted to 0.3 ± 0.033 µM. `NC(=O)c1cccc(-c2ccc3c(c2)OCCCN3c2ccc(C(F)(F)F)cc2)n1` [Compound 65, 6-(5-(4-(trifluoromethyl)-phenyl)-2,3,4,5-tetrahydrobenzo[b][1,4]oxazepin-8-yl)picolinamide]: in assay [1] (setting [3]), the IC50 is 0.338 ± 0.034 µM. As for `C[C@H](Nc1cc(C(N)=O)nc(-c2ccc3c(c2)CN(C)CCN3c2ccc(C(F)(F)F)cc2)n1)C(N)=O` [Compound 90, (S)-6-((1-amino-1-oxopropan-2-yl)amino)-2-(4-methyl-1-(4-(trifluoromethyl)phenyl)-2,3,4,5-tetrahydro-1H-benzo[e][1,4]diazepin-7-yl)pyrimidine-4-carboxamide], the IC50 in assay [1] (setting [3]) is > 20 µM. The same measure, in the same setting: as for `C[C@H](Nc1cc(C(N)=O)nc(-c2ccc3c(c2)CNCCN3c2ccc(C(F)(F)F)cc2)n1)C(N)=O` [Compound 88, (S)-6-((1-amino-1-oxopropan-2-yl)amino)-2-(1-(4-(trifluoromethyl)phenyl)-2,3,4,5-tetrahydro-1H-benzo[e][1,4]diazepin-7-yl)pyrimidine-4-carboxamide], the figure is > 20 µM; as for `N#CCN1CCN(c2ccc(C(F)(F)F)cc2)c2ccc(-c3cccc(C(N)=O)n3)cc2C1` [Compound 102, 6-(4-(cyanomethyl)-1-(4-(trifluoromethyl)phenyl)-2,3,4,5-tetrahydro-1H-benzo[e][1,4]diazepin-7-yl)picolinamide], 0.857 ± 0.075 µM. As for `NC(=O)c1cccc(-c2ccc3c(c2)CCCN3c2ccc(C(F)(F)F)cc2)n1` [Compound 66, 6-(1-(4-(trifluoromethyl)-phenyl)-1,2,3,4-tetrahydroquinolin-6-yl)picolinamide], in assay [1] (setting [3]), the IC50 is 0.913 ± 0.024 µM. As for `CC(=O)N1CCN(c2ccc(C(F)(F)F)cc2)c2ccc(-c3cccc([C@H](O)CO)n3)cc2C1` [Compound 96, (S)-1-(7-(6-(1,2-dihydroxyethyl)pyridin-2-yl)-1-(4-(trifluoromethyl)phenyl)-1,2,3,5-tetrahydro-4H-benzo[e][1,4]diazepin-4-yl)ethan-1-one], the IC50 in assay [1] (setting [3]) was determined as 0.662 ± 0.035 µM. For the same compound, in assay [2], the Ki amounted to 0.627 ± 0.134 µM.

`C[C@H](Nc1cc(C(N)=O)nc(-c2ccc3c(c2)OCCC3Cc2ccc(F)cc2)n1)C(N)=O` (stereo partly drawn) [Compound 112, 6-(((S)-1-amino-1-oxopropan-2-yl)amino)-2-(4-(4-fluorobenzyl)chroman-7-yl)pyrimidine-4-carboxamide]: in assay [1] (setting [3]), the IC50 was 5.32 ± 0.425 µM.

For the origin of these results see patent US10047075B2, “Pyridines and pyrimidines and use thereof” (Purdue Pharma L.P., priority 2014, dated 2018).
